Here are results for 25 molecules from PubChem BioAssay AID743231 (The Scripps Research Institute Molecular Screening Center, 2013).

Structures are written as SMILES. Activity calls are given as the source filed them. Cut-off not given; nearly all actives show IC50 up to about 7.9 µM.

In the assay the target is Trace amine-associated receptor 1 (Homo sapiens) (UniProt Q96RJ0). Description: agonist-induced loss of TAAR1 response, titration – cell-based, fluorescence, late stage, counter-screen for TAAR1 agonist project, dose response (AID 743231). The note with it: hTAAR1 cells, desensitization of agonist response.
Trace amine-associated receptor 1 (Homo sapiens), sequence (Q96RJ0 whole entry, looked up): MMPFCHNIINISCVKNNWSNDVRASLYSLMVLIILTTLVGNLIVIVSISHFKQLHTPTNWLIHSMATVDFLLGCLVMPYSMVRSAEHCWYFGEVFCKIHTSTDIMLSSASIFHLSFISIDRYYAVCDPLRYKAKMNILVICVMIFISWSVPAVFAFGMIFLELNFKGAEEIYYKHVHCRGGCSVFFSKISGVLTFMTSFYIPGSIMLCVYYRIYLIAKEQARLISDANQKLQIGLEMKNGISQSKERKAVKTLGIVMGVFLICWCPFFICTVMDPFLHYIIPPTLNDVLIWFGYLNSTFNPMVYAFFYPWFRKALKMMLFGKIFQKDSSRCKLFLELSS
As a reminder, the IC50 is the concentration that inhibits the measured activity by half. Turning to `CCOC(=O)C(NC(=O)CC)(N1CCc2ccccc2C1)C(F)(F)F` (stereo not given), the half-maximal inhibitory concentration (IC50) was 0.611 µM.

With `Cc1cc(N(C)C)nc(Nc2ccccc2)n1`, the IC50 was 0.21 µM. In the case of `O=C(Nc1cccnc1)Nc1cccc(F)c1` it was 6.52 µM; in that of `NC(N)=NN=Cc1c(Cl)cccc1Cl`, 0.77 µM.

For `O=C(Nc1cccc2ccccc12)N1CCc2ccccc2C1`, the IC50 is > 29.9 µM (inactive). As to `O=C(Nc1ccccc1)Nc1ccncc1`, the IC50 was 2.74 µM. In the case of `c1ccc2c(c1)CCN(c1nc3cc4c(cc3s1)OCO4)C2` it was 2.25 µM.

Take `O=C(CCN1CCC(c2ccccc2)C1)c1cccs1` (stereo not given): the IC50 was 0.835 µM. In the case of `CCOC(=O)C(NC(C)=O)(N1CCc2ccccc2C1)C(F)(F)F` (stereo not given), the half-maximal inhibitory concentration (IC50) was 0.639 µM. In the case of `c1ccc2c3c([nH]c2c1)CCNC3` it was 1.12 µM; in that of `Nc1nc(Nc2cccc(F)c2)nc2ccccc12`, 1.28 µM.

In the case of `c1ccc(CCn2nnnc2C(c2cccs2)N2CCN(Cc3ccc4c(c3)OCO4)CC2)cc1` (stereo not given), the 50% inhibitory concentration (IC50) was 1.34 µM. Take `OCCNc1nc(Nc2ccc(O)cc2)nc2ccccc12`: the half-inhibitory concentration (IC50) was 1.86 µM. The result for `CC1(C)CCCN(C(=O)c2coc(=O)c(Br)c2)C1` reads 2.55 µM; that for `Cc1ccc(NC(=O)CCN2CCc3ccccc3C2)cc1`, 8.27 µM. Consider `O=C(CCN1CCC(c2ccccc2)C1)c1ccc2c(c1)OCCO2` (stereo not given), for which the IC50 is 0.856 µM. Turning to `O=C(CCCCl)N1CCc2[nH]c3ccccc3c2C1`, the IC50 was 1.09 µM. The result for `O=C(Nc1ccncc1)Nc1ccc(F)cc1` reads 2.43 µM. Consider `COc1cc(C(=O)CCN2CCC(c3ccccc3)C2)cc(OC)c1OC` (stereo not given), for which the IC50 was 1.52 µM. With `O=C(C(=O)N1CCc2ccccc2C1)c1cn(CC(=O)N2CCCCC2)c2ccccc12`, the IC50 was 2.69 µM.

For the molecule `Nc1nc(Nc2ccccc2)nc2ccccc12`, the half-maximal inhibitory concentration (IC50) is 0.642 µM. Regarding `O=C(CCN1CCc2ccccc2CC1)c1ccc2c(c1)OCCO2`, the 50% inhibitory concentration (IC50) was 1.01 µM. For the molecule `OCCNc1nc(Nc2cccc(O)c2)nc2ccccc12`, the concentration for half-maximal inhibition (IC50) is 0.244 µM. With `Cc1cc(C)n(C(CC(=O)N2CCc3ccccc3C2)C(=O)O)n1` (stereo not given), the half-inhibitory concentration (IC50) was 1.22 µM.

On to `CC(=NCCc1ccccc1)C1CCOC1=O` (stereo not given), for which the half-inhibitory concentration (IC50) was 2.84 µM.
